Measurements from patent US4175081A, “5-Substituted thiadiazole ureas” (priority 1977, dated 1979).

How the values were obtained:
Crabgrass (CG) [1] = experiment: Pre-emergence herbicide test; type: in vivo, Digitaria sanquinalis; details: Digitaria sanguinalis, pre-emergence, 336 h, two weeks after treatment; for pest or weed control at 8966.8 g/ha: 8 lb/acre
Description: (§1) Crabgrass (CG)--Digitaria sanquinalis
(§2) All crop and weed species were planted individually in 3' plastic pots containing potting soil. Four seeds each of corn, cotton, and snapbeans were seeded to a depth equal to the diameter of the seed. All other species were surface seeded and sprinkled with screened soil in an amount sufficient to cover the seed. Immediately after planting, all pots were watered by sub-irrigation in greenhouse trays. Pots for the pre-emergence phase were seeded one day before treatment.
(§3) Spray hood constants required to deliver the above volume are as follows:
(§4) Formulations for spray applications were prepared in 50 ml volumes with the following three components: […]
(§5) Spray applications were made in a hood containing a removable belt and fixed spray nozzle. For passage through the spray hood, one pot of each specie (pre-emergence phase) was placed on the rear half of the flat. Treatments were removed to the greenhouse after spraying. Watering during the observation period was done only by sub-irrigation.
(§6) Two weeks after treatment, pre- and post-emergence injury or control was visually rated, and the results were as shown in the following tables. Pre-emergence data are provided in TABLE III and post-emergence data are provided in TABLE IV, for compounds having the formula illustrated in TABLE I. Correspondingly, pre-emergence and post-emergence data, respectively, are set forth in TABLES V AND VI, for compounds having the formula illustrated in TABLE II.

Johnson grass (JG) [2] = experiment: Pre-emergence herbicide test; type: in vivo, Sorgum helepense; details: Sorghum halepense, 336 h, two weeks after treatment; for pest or weed control at 8966.8 g/ha: 8 lb/acre
Description: (§7) Johnson grass (JG)--Sorgum helepense
as §2
(§8) Compounds were tested at rates of application equivalent to 8 lbs. of actual compound per acre in a spray volume of 38 gallons per acre. Spray hood constants required to deliver the above volume are as follows:
(§9) Formulations for spray applications were prepared in 50 ml volumes with the following three components:
(§10) Formulations for the 4 lbs/acre rate were prepared by adjusting the amount of active ingredient accordingly.
as §5, §6

Barnyard grass (BG) [3] = experiment: Pre-emergence herbicide test; type: in vivo; details: Echinochloa crus-galli, 336 h, two weeks after treatment; for pest or weed control at 8966.8 g/ha: 8 lb/acre
Description: (§11) Barnyard grass (BG)--Echinochloa crus-galli
as §2, §8, §9, §10, §5, §6

Turnip (TP) [4] = experiment: Pre-emergence herbicide test; type: in vivo, Brassica sp.; details: Brassica rapa, pre-emergence, 336 h, two weeks after treatment; for pest or weed control at 8966.8 g/ha: 8 lb/acre
Description: (§12) Turnip (TP)--Brassica sp.
as §2, §3, §4, §5, §6

Cotton (CT) [5] = experiment: Pre-emergence herbicide test; type: in vivo, Gossypium hirsutum var. DPL smooth leaf; details: Gossypium hirsutum, 336 h, two weeks after treatment; for pest or weed control at 8966.8 g/ha: 8 lb/acre
Description: (§13) Cotton (CT)--Gossypium hirsutum var. DPL smooth leaf
as §2, §8, §9, §10, §5, §6

Corn (CN) [6] = experiment: Pre-emergence herbicide test; type: in vivo; details: Zea mays, 336 h, two weeks after treatment; for pest or weed control at 8966.8 g/ha: 8 lb/acre
Description: as §2, §8, §9, §10, §5, §6

Bean (BN) [7] = experiment: Pre-emergence herbicide test; type: in vivo, Phaseolus vulgaris var. Black Valentine; details: Phaseolus vulgaris, 336 h, two weeks after treatment; for pest or weed control at 8966.8 g/ha: 8 lb/acre
Description: (§14) Bean (BN)--Phaseolus vulgaris var. Black Valentine
as §2, §8, §9, §10, §5, §6

Crabgrass (CG) [8] = experiment: Post-emergence herbicide test; type: in vivo, Digitaria sanquinalis; details: Digitaria sanguinalis, post-emergence, 336 h, two weeks after treatment; for pest or weed control at 8966.8 g/ha: 8 lb/acre
Description: as §1, §2
(§15) Planting dates for the post-emergence phase were varied so that all seedlings would reach the desired stage of development simultaneously. The proper stage of seedling development for treatment in the post-emergence phase is as follows:
as §3, §4, §5, §6

Johnson grass (JG) [9] = experiment: Post-emergence herbicide test; type: in vivo, Sorgum helepense; details: Sorghum halepense, 336 h, two weeks after treatment; for pest or weed control at 8966.8 g/ha: 8 lb/acre
Description: as §7, §2, §15, §8, §9, §10, §5, §6

Barnyard grass (BG) [10] = experiment: Post-emergence herbicide test; type: in vivo; details: Echinochloa crus-galli, 336 h, two weeks after treatment; for pest or weed control at 8966.8 g/ha: 8 lb/acre
Description: as §11, §2, §15, §8, §9, §10, §5, §6

Turnip (TP) [11] = experiment: Post-emergence herbicide test; type: in vivo, Brassica sp.; details: Brassica rapa, post-emergence, 336 h, two weeks after treatment; for pest or weed control at 8966.8 g/ha: 8 lb/acre
Description: as §12, §2, §15
Pigweed and turnips: 1 or 2 true leaves above visible cotyledons.
as §3, §4, §5, §6

Cotton (CT) [12] = experiment: Post-emergence herbicide test; type: in vivo, Gossypium hirsutum var. DPL smooth leaf; details: Gossypium hirsutum, post-emergence, 336 h, two weeks after treatment; for pest or weed control at 8966.8 g/ha: 8 lb/acre
Description: as §13, §2, §15
Cotton: first true leaf 1' in length; expanded cotyledons.
as §3, §9, §10, §5, §6

Corn (CN) [13] = experiment: Post-emergence herbicide test; type: in vivo; details: Zea mays, 336 h, two weeks after treatment; for pest or weed control at 8966.8 g/ha: 8 lb/acre
Description: as §2, §15, §8, §9, §10, §5, §6

Bean (BN) [14] = experiment: Post-emergence herbicide test; type: in vivo, Phaseolus vulgaris var. Black Valentine; details: Phaseolus vulgaris, post-emergence, 336 h, two weeks after treatment; for pest or weed control at 8966.8 g/ha: 8 lb/acre
Description: as §14, §2, §15
Beans: primary leaves expanded, growing point at primary leaf nodes.
as §3, §9, §10, §5, §6

| Structure (SMILES) | pest or weed control at 8966.8 g/ha (Crabgrass (CG) [1]) [%] | pest or weed control at 8966.8 g/ha (Johnson grass (JG) [2]) [%] | pest or weed control at 8966.8 g/ha (Barnyard grass (BG) [3]) [%] | pest or weed control at 8966.8 g/ha (Turnip (TP) [4]) [%] | pest or weed control at 8966.8 g/ha (Cotton (CT) [5]) [%] | pest or weed control at 8966.8 g/ha (Corn (CN) [6]) [%] | pest or weed control at 8966.8 g/ha (Bean (BN) [7]) [%] | pest or weed control at 8966.8 g/ha (Crabgrass (CG) [8]) [%] | pest or weed control at 8966.8 g/ha (Johnson grass (JG) [9]) [%] | pest or weed control at 8966.8 g/ha (Barnyard grass (BG) [10]) [%] | pest or weed control at 8966.8 g/ha (Turnip (TP) [11]) [%] | pest or weed control at 8966.8 g/ha (Cotton (CT) [12]) [%] | pest or weed control at 8966.8 g/ha (Corn (CN) [13]) [%] | pest or weed control at 8966.8 g/ha (Bean (BN) [14]) [%] | also measured |
| --- | --- | --- | --- | --- | --- | --- | --- | --- | --- | --- | --- | --- | --- | --- | --- |
| CNC(=O)Nc1nnc(-c2ccc(Cl)cc2Cl)s1 [Example 75] | 0 | 0 | 0 | 40 | 30 | 0 | 100 | 50 | 30 | 40 | 80 | 50 | 30 | 100 |  |
| CNC(=O)Nc1nnc(-c2ccc(C)cc2)s1 [Example 76] | 20 | 0 | 30 | 40 | 100 | 50 | 80 | 40 | 30 | 40 | 60 | 50 | 30 | 50 |  |
| CCCCCCCCSc1nnc(NC(=O)NC)s1 [Example 78] |  |  |  |  |  |  |  |  |  |  |  |  |  |  | pest or weed control (Crabgrass (CG) [1]; 1 lb/acre): 20%; pest or weed control at 1120.85 g/ha (Johnson grass (JG) [2]; 1 lb/acre): 0%; pest or weed control at 1120.85 g/ha (Barnyard grass (BG) [3]; 1 lb/acre): 0%; pest or weed control at 1120.85 g/ha (Turnip (TP) [4]; 1 lb/acre): 0%; pest or weed control at 1120.85 g/ha (Cotton (CT) [5]; 1 lb/acre): 30%; pest or weed control at 1120.85 g/ha (Corn (CN) [6]; 1 lb/acre): 0%; pest or weed control at 1120.85 g/ha (Bean (BN) [7]; 1 lb/acre): 80%; pest or weed control at 1120.85 g/ha (Crabgrass (CG) [8]; 1 lb/acre): 30%; pest or weed control at 1120.85 g/ha (Johnson grass (JG) [9]; 1 lb/acre): 30%; pest or weed control at 1120.85 g/ha (Barnyard grass (BG) [10]; 1 lb/acre): 40%; pest or weed control at 1120.85 g/ha (Turnip (TP) [11]; 1 lb/acre): 100%; pest or weed control at 1120.85 g/ha (Cotton (CT) [12]; 1 lb/acre): 80%; pest or weed control at 1120.85 g/ha (Corn (CN) [13]; 1 lb/acre): 40%; pest or weed control at 1120.85 g/ha (Bean (BN) [14]; 1 lb/acre): 100% |
| CCSCCSc1nnc(NC(=O)NC)s1 [Example 80] | 50 | 20 | 20 | 0 | 50 | 0 | 100 | 90 | 60 | 50 | 100 | 80 | 0 | 100 |  |
